Results on 26 compounds are retold here after patent publication US10052320B2, “Substituted quinoxalines as FGFR kinase inhibitors” (ASTEX THERAPEUTICS LIMITED, priority 2011, dated 2018).

Type in all cases: cell-based
Assay [1] relates to Ba/F3-FGFR3-transfected cells in the presence of 10 ng/ml murine IL3. As to the kind of experiment: Ba/F3-FGFR3 (plus IL3) cellular proliferation counterscreen, Alamar Blue. The settings on record: Mus musculus; plus 10 ng/ml murine IL3; 384 well; read-out: BAF3-FGFR 3 (PLUS IL3) 384 well pIC50 (converted). As for the experimental part: (§1) Ba/F3-FGFR3 (Minus IL3 or Plus IL3) (Cellular Proliferation Assay)
(§2) In a 384 well plate, 100 nl of compound dilution in DMSO was sprayed before adding 50 μl cell culture medium (phenol red free RPMI-1640, 10% FBS, 2 mM L-Glutamine and 50 μg/ml Gentamycin) containing 20000 cells per well of Ba/F3-FGFR3-transfected cells. Cells were put in an incubator at 37° C. and 5% CO2. After 24 hours, 10 μl of Alamar Blue solution (0.5 mM K3Fe(CN)6, 0.5 mM KaFe(CN)6, 0.15 mM Resazurin and 100 mM Phosphate Buffer) was added to the wells, incubated for 4 hours at 37° C. and 5% CO2 before RFU's (Relative Fluorescence Units) (ex. 540 nm., em. 590 nm.) were measured in a flurorescence plate reader.
As a counterscreen the same experiment was performed in the presence of 10 ng/ml murine IL3.
as §2, with “a 96” for “a 384”, “plate, 180” for “plate, 100 nl of compound dilution in DMSO was sprayed before adding 50”, “containing 10000” for “containing 20000”, “Ba/F3-FGFR3-transfected cells were pipette and 20 μl of compound dilution in DMSO was added.” for “Ba/F3-FGFR3-transfected cells.”, “hours, 40” for “hours, 10”
On the technique in general: The purpose of a counterscreen is to sort out artefacts and off-target activity.

Assay [2] deals with Ba/F3-FGFR4-transfected cells (Homo sapiens, UniProt P22455). As to the kind of experiment: Ba/F3-FGFR4 cellular proliferation assay, Alamar Blue. The procedure: Ba/F3-FGFR4 (Cellular Proliferation Assay)
as §2, with “Ba/F3-FGFR4-transfected” for “Ba/F3-FGFR3-transfected”
In general terms: The colour change of resazurin is a common sign of viable cells or microbes.

Assay [3] deals with Ba/F3-FGFR3-transfected cells (Homo sapiens, UniProt P22607). Nature of the assay: Ba/F3-FGFR3 (minus IL3) cellular proliferation assay, Alamar Blue. The conditions noted are these: minus IL3, 384 well. As for the experimental part:
as §1
Cells were put in an incubator at 37° C. and 5% CO2. After 24 hours, 10 μl of Alamar Blue solution (0.5 mM K3Fe(CN)6, 0.5 mM KaFe(CN)6, 0.15 mM Resazurin and 100 mM Phosphate Buffer) was added to the wells, incubated for 4 hours at 37° C. and 5% CO2 before RFU's (Relative Fluorescence Units) (ex. 540 nm., em. 590 nm.) were measured in a flurorescence plate reader. […]
as §2, with “a 96” for “a 384”, “plate, 180” for “plate, 100 nl of compound dilution in DMSO was sprayed before adding 50”, “containing 10000” for “containing 20000”, “Ba/F3-FGFR3-transfected cells were pipette and 20 μl of compound dilution in DMSO was added.” for “Ba/F3-FGFR3-transfected cells.”, “hours, 40” for “hours, 10”

In assay [4] the test system is Ba/F3-Flt3-transfected cells in the presence of 10 ng/ml murine IL3. Nature of the assay: Ba/F3-Flt3 (plus IL3) cellular proliferation counterscreen, Alamar Blue. The conditions noted are these: Mus musculus; plus 10 ng/ml murine IL3; read-out: BAF3-FLT3 (PLUS IL3) 384 well pIC50 (converted).

Chain of Ba/F3-FGFR4-transfected cells (P22455 whole entry, change not shown): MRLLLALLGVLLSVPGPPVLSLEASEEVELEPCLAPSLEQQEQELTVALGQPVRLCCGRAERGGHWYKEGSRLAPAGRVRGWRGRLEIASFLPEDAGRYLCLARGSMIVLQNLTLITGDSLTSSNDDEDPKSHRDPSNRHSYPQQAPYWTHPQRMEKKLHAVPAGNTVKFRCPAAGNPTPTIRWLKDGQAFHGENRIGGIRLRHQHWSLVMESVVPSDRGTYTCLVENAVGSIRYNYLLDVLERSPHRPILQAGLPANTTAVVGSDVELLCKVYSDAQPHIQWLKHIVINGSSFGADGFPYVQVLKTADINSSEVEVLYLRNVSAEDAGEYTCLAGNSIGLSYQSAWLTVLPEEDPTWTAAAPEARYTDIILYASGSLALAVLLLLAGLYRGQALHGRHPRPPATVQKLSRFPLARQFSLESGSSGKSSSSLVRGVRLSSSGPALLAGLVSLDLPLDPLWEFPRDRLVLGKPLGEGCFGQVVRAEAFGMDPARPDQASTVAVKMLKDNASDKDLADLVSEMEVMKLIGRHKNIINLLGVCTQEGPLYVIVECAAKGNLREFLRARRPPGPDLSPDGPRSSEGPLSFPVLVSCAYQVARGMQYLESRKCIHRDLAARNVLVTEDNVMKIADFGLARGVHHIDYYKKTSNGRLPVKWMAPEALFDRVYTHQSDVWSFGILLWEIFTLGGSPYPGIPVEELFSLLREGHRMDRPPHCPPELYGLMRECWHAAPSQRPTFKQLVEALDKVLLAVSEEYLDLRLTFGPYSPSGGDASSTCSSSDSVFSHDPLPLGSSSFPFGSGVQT
Chain of Ba/F3-FGFR3-transfected cells (P22607 whole entry, change not shown): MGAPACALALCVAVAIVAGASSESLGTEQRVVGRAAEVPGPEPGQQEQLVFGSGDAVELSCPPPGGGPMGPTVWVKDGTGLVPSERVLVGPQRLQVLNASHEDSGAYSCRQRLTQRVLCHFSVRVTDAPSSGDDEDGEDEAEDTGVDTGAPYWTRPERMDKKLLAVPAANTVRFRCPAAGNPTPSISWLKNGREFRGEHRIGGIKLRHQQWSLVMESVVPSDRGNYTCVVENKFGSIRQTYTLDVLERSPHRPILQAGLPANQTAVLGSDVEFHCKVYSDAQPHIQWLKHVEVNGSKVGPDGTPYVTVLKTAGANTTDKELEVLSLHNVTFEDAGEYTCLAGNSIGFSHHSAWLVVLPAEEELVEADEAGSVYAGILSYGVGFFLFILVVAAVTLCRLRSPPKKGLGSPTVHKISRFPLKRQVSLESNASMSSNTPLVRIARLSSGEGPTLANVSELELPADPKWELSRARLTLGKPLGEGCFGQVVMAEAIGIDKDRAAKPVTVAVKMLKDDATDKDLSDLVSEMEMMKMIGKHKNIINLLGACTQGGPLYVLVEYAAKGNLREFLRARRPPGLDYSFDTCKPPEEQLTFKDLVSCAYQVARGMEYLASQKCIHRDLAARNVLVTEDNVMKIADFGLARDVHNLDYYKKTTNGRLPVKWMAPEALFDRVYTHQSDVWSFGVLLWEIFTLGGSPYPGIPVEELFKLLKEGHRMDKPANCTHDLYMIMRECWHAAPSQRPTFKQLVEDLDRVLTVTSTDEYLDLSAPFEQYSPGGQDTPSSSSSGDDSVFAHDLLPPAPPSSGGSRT

For the compound `COc1cc(OC)cc(N(CCNC(C)C)c2ccc3ncc(-n4cnc(CO)c4)nc3c2)c1` [Compound 77], the IC50 in assay [1] and in assay [4] was over 10 µM each time. In addition, in assay [2], the “BAF3-FGFR4 pIC50” value came to 6.9. Also, the “BAF3-FGFR 3 (MIN IL3) 384 well pIC50” value in assay [3] came out at 7.12.
`COc1cc(OC)cc(N(CCN)c2ccc3ncc(-c4ccn(C)c4)nc3c2)c1` [Compound 79]: the IC50 in assay [1] and in assay [4] was over 10 µM each time. Also, the “BAF3-FGFR4 pIC50” value in assay [2] was 6.7. Further, the “BAF3-FGFR 3 (MIN IL3) 384 well pIC50” value in assay [3] was about 6.64.
As for `CNc1ccc(-c2cnc3ccc(N(CCCNCC(F)(F)F)c4cc(OC)cc(OC)c4)cc3n2)cn1` [Compound 129], the IC50 in assay [1] and in assay [4] was over 10 µM in each case. Further, in assay [2], the “BAF3-FGFR4 pIC50” value was determined as 5.4. The “BAF3-FGFR 3 (MIN IL3) 384 well pIC50” value in assay [3] is listed as 5.89.
`COc1cc(OC)cc(N(CCO)c2ccc3ncc(-c4ccnc(C(=O)NCCCCCO)c4)nc3c2)c1` [Compound 139]: the IC50 in assay [1] and in assay [4] was over 10 µM each time. The “BAF3-FGFR4 pIC50” value in assay [2] is reported as under 5. In addition, the “BAF3-FGFR 3 (MIN IL3) 384 well pIC50” value in assay [3] was found to be 5.72.
With `COc1cc(OC)cc(N(CCCO)c2ccc3ncc(-c4ccnc(F)c4)nc3c2)c1` [Compound 142], the IC50 in assay [1] and in assay [4] was over 10 µM throughout. The “BAF3-FGFR4 pIC50” value in assay [2] is 5.6. In addition, in assay [3], the “BAF3-FGFR 3 (MIN IL3) 384 well pIC50” value came to 5.85.
`COc1cc(OC)cc(N(CCCNCC(F)(F)F)c2ccc3ncc(-c4ccnc(Cl)c4)nc3c2)c1` [Compound 145]: the IC50 in assay [1] and in assay [4] was over 10 µM throughout. Further, the “BAF3-FGFR4 pIC50” value in assay [2] is on record as under 5.35. Besides, the “BAF3-FGFR 3 (MIN IL3) 384 well pIC50” value in assay [3] was under 5.
Take `COc1cc(OC)cc(N(CCCNCC(F)(F)F)c2ccc3ncc(-c4ccnc(C(=O)NCCCCCO)c4)nc3c2)c1` [Compound 150]: the IC50 in assay [1] and in assay [4] was over 10 µM in each case. Further, the “BAF3-FGFR4 pIC50” value in assay [2] is about 5.0. Moreover, in assay [3], the “BAF3-FGFR 3 (MIN IL3) 384 well pIC50” value is 5.11.
As for `COc1cc(OC)cc(N(CCO)c2ccc3ncc(-c4ccccc4CCO)nc3c2)c1` [Compound 151], the IC50 in assay [1] and in assay [4] was over 10 µM throughout. For the same compound, in assay [2], the “BAF3-FGFR4 pIC50” value is on record as under 5. Moreover, the “BAF3-FGFR 3 (MIN IL3) 384 well pIC50” value in assay [3] is 5.11.
As to `COc1cc(OC)cc(N(CCO)c2ccc3ncc(-c4ccc(N5CCN(C(=O)OC(C)(C)C)CC5)cc4)nc3c2)c1` [Compound 156], the IC50 in assay [1] and in assay [4] was over 10 µM in each case. Also, the “BAF3-FGFR4 pIC50” value in assay [2] was 5.4. Moreover, in assay [3], the “BAF3-FGFR 3 (MIN IL3) 384 well pIC50” value worked out at 5.79.
As to `COc1cc(OC)cc(N(CCCNCC(F)(F)F)c2ccc3ncc(C(=O)NCCN4CCOCC4)nc3c2)c1` [Compound 158], the IC50 in assay [1] and in assay [4] was over 10 µM in each case. Also, in assay [2], the “BAF3-FGFR4 pIC50” value was 5.1. Further, the “BAF3-FGFR 3 (MIN IL3) 384 well pIC50” value in assay [3] was under 5.
With `COc1cc(OC)cc(N(CCNC(C)C)c2ccc3ncc(C(=O)NCCCN4CCN(C)CC4)nc3c2)c1` [Compound 159], the IC50 in assay [1] and in assay [4] was over 10 µM in each case. The “BAF3-FGFR4 pIC50” value in assay [2] is about 5.5. Also, in assay [3], the “BAF3-FGFR 3 (MIN IL3) 384 well pIC50” value was determined as 5.82.
As to `COc1cc(OC)cc(N(CCNC(C)C)c2ccc3ncc(NCC4CCNCC4)nc3c2)c1` [Compound 161], the IC50 in assay [1] and in assay [4] was over 10 µM each time. Further, the “BAF3-FGFR4 pIC50” value in assay [2] was under 5. For the same compound, in assay [3], the “BAF3-FGFR 3 (MIN IL3) 384 well pIC50” value is listed as 5.38.
With `COc1cc(OC)cc(N(CCO)c2ccc3ncc(-c4ccc(N5CCN(C)CC5)nc4)nc3c2)c1` [Compound 163], the IC50 in assay [1] and in assay [4] was over 10 µM each time. Also, the “BAF3-FGFR4 pIC50” value in assay [2] was under 5. For the same compound, the “BAF3-FGFR 3 (MIN IL3) 384 well pIC50” value in assay [3] was about 6.14.
Consider `COc1cc(OC)cc(N(CCO)c2ccc3ncc(-c4ccc(N5CCNCC5)nc4)nc3c2)c1` [Compound 165], for which the IC50 in assay [1] is over 10 µM; in assay [4], about 5.75 µM. Besides, in assay [2], the “BAF3-FGFR4 pIC50” value was 6.6. For the same compound, in assay [3], the “BAF3-FGFR 3 (MIN IL3) 384 well pIC50” value is 6.12.
For `COc1cc(OC)cc(N(CCO)c2ccc3ncc(-c4ccc(N5CCNCC5)cc4)nc3c2)c1` [Compound 166] the same measures were about 6.03 µM, about 5.62 µM, 6.7 and about 6.1.
On the same counts, the results for `COc1cc(OC)cc(N(CCNC(C)C)c2ccc3ncc(-n4cnc(COC(C)=O)c4)nc3c2)c1` [Compound 167] are over 10 µM, over 10 µM, 6.4 and 7.09.
Regarding `COc1cc(OC)cc(N(CCNC(C)C)c2ccc3ncc(-c4ccc(N5CCOCC5)nc4)nc3c2)c1` [Compound 168], the IC50 in assay [1] is about 9.33 µM; in assay [4], about 8.32 µM. The “BAF3-FGFR4 pIC50” value in assay [2] was 6.9. In addition, the “BAF3-FGFR 3 (MIN IL3) 384 well pIC50” value in assay [3] is about 7.15.
On to `COc1cc(OC)cc(N(CCN2CCOCC2)c2ccc3ncc(-c4ccc(N)nc4)nc3c2)c1` [Compound 169], for which the IC50 in assay [1] and in assay [4] was over 10 µM throughout. For the same compound, the “BAF3-FGFR4 pIC50” value in assay [2] worked out at 6.0. Also, the “BAF3-FGFR 3 (MIN IL3) 384 well pIC50” value in assay [3] is 6.19.
As for `COc1cc(OC)cc(N(CCNC(C)C)c2ccc3ncc(-c4ccc(N5CCN(C)CC5)nc4)nc3c2)c1` [Compound 170], the figures for the IC50 in assay [1] and in assay [4] were 9.77 µM and 5.01 µM, respectively. Further, in assay [2], the “BAF3-FGFR4 pIC50” value is recorded as 6.2. For the same compound, the “BAF3-FGFR 3 (MIN IL3) 384 well pIC50” value in assay [3] stood at 6.16.
For `COc1cc(OC)cc(N(CCO)c2ccc3ncc(/C(C)=N/OC(C)(C)C)nc3c2)c1` [Compound 171] the same measures were over 10 µM, over 10 µM, under 5 and under 5.
On the same counts, the results for `COC(=O)C1CCCN1c1cnc2ccc(N(CCO)c3cc(OC)cc(OC)c3)cc2n1` (centres unmarked) [Compound 172] are over 10 µM, over 10 µM, 5.1 and 5.36.
For `COc1cc(OC)cc(N(CCO)c2ccc3ncc(C4=CCN(C(=O)OC(C)(C)C)C4)nc3c2)c1` [Compound 173] the same measures were over 10 µM, over 10 µM, 5.6 and 6.08.
Regarding `COc1cc(OC)cc(N(CCO)c2ccc3ncc(C4=CCN(C(=O)OC(C)(C)C)CC4)nc3c2)c1` [Compound 178], the IC50 in assay [1] and in assay [4] was over 10 µM in each case. For the same compound, in assay [2], the “BAF3-FGFR4 pIC50” value was found to be 5.9. In addition, in assay [3], the “BAF3-FGFR 3 (MIN IL3) 384 well pIC50” value is on record as 6.29.
`COc1cc(OC)cc(N(CCNC(C)C)c2ccc3ncc(C(=O)N4CCN(C)CC4)nc3c2)c1` [Compound 179]: the IC50 in assay [1] and in assay [4] was over 10 µM in each case. In assay [2], the “BAF3-FGFR4 pIC50” value is given as under 5. For the same compound, the “BAF3-FGFR 3 (MIN IL3) 384 well pIC50” value in assay [3] came to 5.19.
In the case of `COc1cc(OC)cc(N(CCNC(C)C)c2ccc3ncc(C(=O)N4CCCCC4)nc3c2)c1` [Compound 180], the IC50 in assay [1] and in assay [4] was over 10 µM in each case. The “BAF3-FGFR4 pIC50” value in assay [2] was determined as 5.2. In assay [3], the “BAF3-FGFR 3 (MIN IL3) 384 well pIC50” value is 5.28.
On to `COc1cc(OC)cc(N(CCNC(C)C)c2ccc3ncc(C(=O)N4CCOCC4)nc3c2)c1` [Compound 181], for which the IC50 in assay [1] and in assay [4] was over 10 µM each time. In addition, in assay [2], the “BAF3-FGFR4 pIC50” value is recorded as under 5. The “BAF3-FGFR 3 (MIN IL3) 384 well pIC50” value in assay [3] is on record as 5.16.
